≈ marks a conversion by molar mass, not a printed value. Read-outs that look alike come from different tables or passages of the source.
Columns and labels:
[1] = test system: murine fibroblast NIH 3T3 cells; set-up: method as in PMID 20302969, doi:10.1039/c0gc00813c; conditions: ref [29],[30]; cited from earlier work
[2] = Phase solubility study (apparent solubility of DIA and Rhe with ILs or HP-β-CD); assay type: physicochemical; conditions: 25 °C, aqueous with cosolvent or surfactant or cyclodextrin, thermodynamic from solid, read-out: saturation solubility
Description: The increase in the apparent solubility of both DIA and Rhe in the presence of the ILs was evaluated. Briefly, aqueous solutions of the ILs were prepared in the range of 0–200 mg/mL, and an excess of either DIA or Rhe was added to each vial. The samples were then incubated for 30 min at 25°C, and the undissolved drug was removed by centrifugation at […] for 15 min (Hettich Mikro 120 centrifuge). […] The drug concentration was measured by UV–Vis analysis. The DIA phase solubility study was also compared to the phase solubility study of DIA in the presence of HP-β-CD as a reference solubility/stability-enhancing excipient. […] The complexation K was calculated through Higuchi and Connors’ method, as previously reported.
The size distribution and zeta potential values of the ILs’ aggregates in aqueous solutions were evaluated by using a Zetasizer Nano ZS (Malvern) at 25 °C. The samples were prepared by adding an excess of either DIA or Rhe (5 mg/mL) to the aqueous IL solutions, incubating them for 30 min at 25 °C, and finally removing the excess drugs by centrifugation. […] In contrast, for PB solutions, the solutions were prepared in water, and […] of 100 mM pH 7 phosphate buffer was added per 1 mL of aqueous solution, directly in the cuvette, before the dynamic light scattering (DLS) analysis started. The concentrations of the solubilised drug were determined by UV–Vis analysis.

[3] = test system: BALB/3T3 clone A31 fibroblast cells; assay: Cytotoxicity screening (WST-1); assay type: cell-based, murine; conditions: Mus musculus, 4 h incubation, read-out: IC50 of cell viability
Description: BALB/3T3 clone A31 fibroblast cells were grown in Dulbecco’s Modified Eagle Medium (DMEM), supplemented with 2 mM L-glutamine, 1% penicillin/streptomycin, and 10% bovine calf serum. Cells were grown in a CO2 incubator (Heracell 150i series) at 37 °C and 5% CO2, with cells sub-cultured at 80–90% confluency. The cell monolayers were rinsed with PBS and treated with trypsin–EDTA to detach the cells before their resuspension in fresh media. A subconfluent monolayer of BALB/3T3 clone A31 fibroblast cells was trypsinised, centrifuged at 1000 rpm for 5 min, resuspended in growth medium, and counted.
A cytotoxicity screening was carried out for both ILs (range […]), as well as DIA and Rhe (0.5–200 mg/mL). Briefly, BALB/3T3 clone A31 fibroblast cells were seeded in each well of 96-well plates at a seeding density of 6 × 10^3 cells/well for 24 h, until 60–70% confluence was reached. After 24 h, the medium was then removed from each well and replaced with DMEM containing the samples.
After 4 h of incubation, the media were removed, replaced with fresh medium containing 10% WST-1 reagent solution, and maintained for 4 h at 37° C with 5% CO2. Afterwards, formazan dye absorbance was quantified at 450 nm with the reference wavelength at 655 nm by using a multilabel reader (BioTek 800/TS, Thermo Scientific).

[4] = test system: S. aureus (clinical isolate W4); assay: MIC determination (microdilution); assay type: cell-based, Staphylococcus aureus
Description: (§1) A clinical isolate of S. aureus (W4) and the reference strain of P. aeruginosa ATCC 27853 were used in the study. For the preparation of stock cultures, bacterial strains were grown in Luria–Bertani broth (LB, Oxoid, Basingstoke, Hampshire, UK) until the late-log phase, subdivided into aliquots, and kept frozen at −80 °C until use. Identification and susceptibility testing of the S. aureus W4 strain were performed using MALDI-TOF (Bruker Daltonics, Bremen, Germany) and the BD Phoenix susceptibility testing system (BD, Milan, Italy), respectively.
(§2) The susceptibility of the bacterial strains to each of the tested compounds was assessed in terms of MIC values according to the standard microdilution method (Clinical and Laboratory Standards Institute–CLSI, 2018), with some modifications. Briefly, the bacteria were grown in LB broth until the exponential growth phase and then diluted in the same medium to reach a final density of 5 × 10^6 CFU/mL. A volume of 10 μL of the bacterial suspensions was added to 90 μL of LB in a 96-well plate in the absence (viability control) or presence of the test compound at different concentrations.

[5] = test system: P. aeruginosa ATCC 27853; assay: MIC determination (microdilution); assay type: cell-based, Pseudomonas aeruginosa
Description: as §1, §2

[6] = test system: S. aureus W4; assay: Biofilm inhibition assay (crystal violet); assay type: cell-based, Staphylococcus aureus; conditions: 12.5 μg/mL
Description: (§3) After overnight growth in LB, cultures of P. aeruginosa ATCC 27853 and S. aureus W4 were diluted 1:100 in LB or in 50% tryptone soy broth (TSB, Oxoid) supplemented with 0.25% glucose (Sigma), respectively. The bacterial suspensions were dispensed into flat-bottomed polystyrene 96-well microplates (Corning Costar, Lowell, MA, USA) in the presence of sub-MIC concentrations of Rhe and DIA (3.12, 6.25, and 12.5 μg/mL). A sample containing 0.8 DMSO % (corresponding to the highest concentration of DMSO tested) was used as a control. The microplates were incubated statically at 37 °C for 24 h, and the biofilm biomass was estimated by CV (Sigma-Aldrich) staining assay, as previously described.

[7] = test system: P. aeruginosa ATCC 27853; assay: Biofilm inhibition assay (crystal violet); assay type: cell-based, Pseudomonas aeruginosa; conditions: any of the concentrations tested (3.12, 6.25, 12.5 μg/mL)
Description: as §3

Molecule: benzalkonium chloride [Bak]
- IC50 [1]: 9.4 µg/mL

Molecule: O=C(O)c1cc(O)c2c(c1)C(=O)c1cccc(O)c1C2=O [Rhe, rhein]
- solubility at 30 min ([2]; in Bet6 solutions): 220 µg/mL (≈ 774 µM)
- solubility at 30 min ([2]; in Carn6 solutions): 130 µg/mL (≈ 457 µM)
- IC50 [3]: 6.7 µg/mL (≈ 23.6 µM)
- MIC ([4]; Staphylococcus aureus, planktonic cells, 24 h, 37 °C): 50 µg/mL (≈ 176 µM)
- antibacterial effect ([4]; in words (discussion)): exert antibacterial effects
- MIC ([5]; Pseudomonas aeruginosa, ATCC27853, planktonic cells, 24 h, 37 °C): > 50 µg/mL
- antibacterial effect ([5]; in words (discussion)): inactive
- biofilm formation (CV staining, OD 570 nm) [6]: statistically significant reduction in biofilm formation
- biofilm formation (CV staining, OD 570 nm), difference vs control [7]: not statistically significant

From publication PMC9916883, “Betaine- and L-Carnitine-Based Ionic Liquids as Solubilising and Stabilising Agents for the Formulation of Antimicrobial Eye Drops Containing Diacerein” (International Journal of Molecular Sciences, 2023)
